The target of one test is T1, CK1α (Homo sapiens, UniProt P48729+Q96SW2).
T1 construct: effects of the compounds of the present disclosure on the expression of target proteins in cells; endogenous in cells; host or cells: human PBMCs (Milecell Biotechnologies)
As to the kind of experiment: Western blot, degradation of substrate protein in hPBMCs. The test is classed as cell-based. The note with it: Western blot, 24 hours of compound treatment, compounds tested at 50 nM and 500 nM (concentration for the table not stated). A general note: In western blotting, separated proteins are transferred to a membrane and probed.

Another test has as its target T2, IKZF2 (Homo sapiens, UniProt Q96SW2+Q9UKS7).
T2 construct: effects of the compounds of the present disclosure on the expression of target proteins in cells; endogenous in cells; host or cells: human PBMCs (Milecell Biotechnologies)
The description is as above. Type of test: cell-based. The following applies: Western blot, 24 hours of compound treatment, compounds tested at 50 nM and 500 nM (concentration for the table not stated).

Another test has as its target T3, IKZF1 (Homo sapiens, UniProt Q13422+Q96SW2).
T3 construct: effects of the compounds of the present disclosure on the expression of target proteins in cells; endogenous in cells; host or cells: human PBMCs (Milecell Biotechnologies)
The description is as above. Type of test: cell-based. The note with it: Western blot, 24 hours of compound treatment, compounds tested at 50 nM and 500 nM (concentration for the table not stated).

In another test the target is T4, IKZF3 (Homo sapiens, UniProt Q96SW2+Q9UKT9).
T4 construct: effects of the compounds of the present disclosure on the expression of target proteins in cells; endogenous in cells; host or cells: human PBMCs (Milecell Biotechnologies)
The description is as above. The test is classed as cell-based. The following applies: Western blot, 24 hours of compound treatment, compounds tested at 50 nM and 500 nM (concentration for the table not stated).

In another test the target is T5, WEE1 (Homo sapiens, UniProt P30291+Q96SW2).
T5 construct: effects of the compounds of the present disclosure on the expression of target proteins in cells; endogenous in cells; host or cells: human PBMCs (Milecell Biotechnologies)
Described as above. The note with it: Western blot, 24 hours of compound treatment, compounds tested at 50 nM and 500 nM (concentration for the table not stated). Type of test: cell-based.

Test [1] relates to Human breast cancer cell (MCF-7). As to the kind of experiment: Tumor cell proliferation inhibition (CellTiter-Meiluncell luminescent cell viability assay). The following applies: MCF7, 96 h; for IC50: read-out: Inhibitory activity (IC50, nM) on tumor cell proliferation, MCF7.
For a further test, the system named is GSPT1. As to the kind of experiment: Western blot, degradation of substrate protein in hPBMCs. The test is classed as cell-based, Human. The following applies: Western blot, 24 hours of compound treatment, compounds tested at 50 nM and 500 nM (concentration for the table not stated).
The subject of test [2] is Human mantle cell lymphoma cell line: JEKO-1. The test can be described thus: Tumor cell proliferation inhibition (CellTiter-Meiluncell luminescent cell viability assay). The following applies: JeKo-1, 96 h, read-out: Inhibitory activity (IC50, nM) on tumor cell proliferation, JEKO-1.
Experimental: (§1) The tumor cells used herein were cultured in a cell culture medium listed in table 2 at 37°C in an incubator with 5% CO2. Prior to experimentation, all cell lines used were correctly identified by STR profiling, and tested negative for mycoplasma contamination using a mycoplasma detection kit through routine screenings.
(§2) The IC50 values of the compounds of the present disclosure (including the compounds in Table 1 and Examples) were determined using the CellTiter-Meiluncell Luminescent Cell Viability Assay Kit from Dalian Meilun Biotech Co., Ltd. The detailed procedure is as follows: Tumor cells were seeded in 96-well cell culture plates at the densities specified in Table 3. On the following day, the test compounds of the present disclosure were subjected to serial dilution. The dilution can be performed according to one of the following two methods: • (1) The first dilution method: The test compounds of the present disclosure (including the compounds in Table 1 and Examples) were subjected to 5-fold serial dilutions starting from a highest concentration of 2000 µM, resulting in a total of 9 concentrations from high to low (2000, 400, 80, 16, 3.2, 0.64, 0.128, 0.0256, 0.00512 µM). Subsequently, 0.5 µL of the test compound dilution was transferred into the 96-well plate containing the cells, with each well containing 100 µL of cell culture medium. […] Into the 96-well plate, the diluted test compounds and corresponding detection reagents were added, resulting in final test compound concentrations of 500 nM and 10 nM, respectively. The experimental procedure is described below using the diluted 2 µM test compound as an example.
(§3) 0.5 µL of the aforementioned diluted compound of the present disclosure (including the compounds in Table 1 and Examples) was added to the seeded cells in 100 µL of medium, yielding a final test compound concentration of 10 nM. After the cells were treated with the compounds of the present disclosure for a specified period, the cell viability assay reagent was added to the culture medium according to the kit's instructions to determine cell viability. […] All controls were treated using the same procedure as the compounds of the present disclosure. The growth inhibition curves for the compounds of the present disclosure were plotted using Prism GraphPad software, and the IC50 values were calculated therefrom.
Test [3] has as its system Human non-small cell lung cancer cell line: NCI-H1975. The description is as above. The note with it: NCI-H1975, 96 h, read-out: Inhibitory activity (IC50, nM) on tumor cell proliferation, H1975.
Experimental: as §1, §2, §3
Test [4] concerns Human multiple myeloma cell (MM.1S). The description is as above. The following applies: Homo sapiens, MM1.S, 96 h; for IC50: read-out: Inhibitory activity (IC50, nM) on tumor cell proliferation, MM.1S.
Test [5] has as its system Human T lymphocytic leukemia cell line: Jurkat. Described as above. The note with it: 96 h; for IC50: read-out: Inhibitory activity (IC50, nM) on tumor cell proliferation, Jurkat.
For test [6], the system named is Human gastric cancer cell line: MGC803. Described as above. The note with it: MGC-803, read-out: Inhibitory activity (IC50, nM) on tumor cell proliferation, MGC803.
Experimental: as §2, §3
Test [7] concerns the target T6, human Cereblon WT GST-tagged protein (Homo sapiens, UniProt Q96SW2).
T6 construct: purchased CISBIO 64BDCRBNPEH
The test can be described thus: CRBN-binding affinity, HTRF (CEREBLON BINDING kit). The note with it: CRBN binding, HTRF, 3 hours at room temperature; read-out: HTRF IC50. Background: In TR-FRET formats the signal depends on donor and acceptor labels being close together.

Test [8] has as its system Human T cell acute lymphoblastic leukemia cell (CCRF-CEM). As to the kind of experiment: Tumor cell proliferation inhibition (CellTiter-Meiluncell luminescent cell viability assay). The note with it: 96 h.
Test [9] concerns Human acute myeloid leukemia cell line: Kasumi-1. Described as above. The following applies: Kasumi 1, 96 h.
Experimental: as §1, §2, §3
Test [10] concerns Human acute T lymphocytic leukemia cell (Molt4). Described as above. The following applies: MOLT-4, 96 h.
Test [11] concerns Human multiple myeloma peripheral blood B lymphocyte cell (RPMI-8226). The test is described as above. The following applies: RPMI-8226, 96 h, read-out: Inhibition Rate at 500 nM (%).
The test system of test [12] is Human malignant melanoma cell line: A375. The description is as above. The note with it: A-375, 96 h.
Experimental: as §1, §2, §3
Test [13] deals with Human monocytic leukemia cell line: THP-1. The test is described as above. The note with it: THP-1, 96 h.
Experimental: as §1, §2, §3
Test [14] has as its system Human colon cancer cell line: SW620. The test is described as above. The following applies: SW-620, 96 h.
Experimental: as §1, §2, §3
The test system of test [15] is Human myeloid monocytic leukemia cell (MV-4-11). The test is described as above. The note with it: MV4-11, 96 h.
Where [16] appears, read: read-out: Inhibition Rate at 10 nM (%).
Where [17] appears, read: read-out: Inhibition Rate at 500 nM (%).

T2 sequence (Q9UKS7 whole entry): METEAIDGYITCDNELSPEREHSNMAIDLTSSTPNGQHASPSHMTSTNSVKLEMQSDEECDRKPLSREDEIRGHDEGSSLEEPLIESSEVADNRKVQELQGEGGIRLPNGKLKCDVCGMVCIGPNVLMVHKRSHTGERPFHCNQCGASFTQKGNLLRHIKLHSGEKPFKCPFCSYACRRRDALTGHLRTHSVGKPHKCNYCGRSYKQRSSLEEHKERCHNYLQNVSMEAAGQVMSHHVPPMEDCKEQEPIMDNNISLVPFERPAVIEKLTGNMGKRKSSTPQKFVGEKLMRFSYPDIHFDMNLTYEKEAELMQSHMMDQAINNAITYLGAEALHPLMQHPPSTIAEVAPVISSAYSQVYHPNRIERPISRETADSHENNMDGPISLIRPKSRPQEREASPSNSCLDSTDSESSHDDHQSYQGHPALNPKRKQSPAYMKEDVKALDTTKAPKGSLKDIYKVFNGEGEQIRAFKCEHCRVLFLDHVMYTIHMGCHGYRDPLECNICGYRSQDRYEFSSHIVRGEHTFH
T2 sequence (Q96SW2 whole entry): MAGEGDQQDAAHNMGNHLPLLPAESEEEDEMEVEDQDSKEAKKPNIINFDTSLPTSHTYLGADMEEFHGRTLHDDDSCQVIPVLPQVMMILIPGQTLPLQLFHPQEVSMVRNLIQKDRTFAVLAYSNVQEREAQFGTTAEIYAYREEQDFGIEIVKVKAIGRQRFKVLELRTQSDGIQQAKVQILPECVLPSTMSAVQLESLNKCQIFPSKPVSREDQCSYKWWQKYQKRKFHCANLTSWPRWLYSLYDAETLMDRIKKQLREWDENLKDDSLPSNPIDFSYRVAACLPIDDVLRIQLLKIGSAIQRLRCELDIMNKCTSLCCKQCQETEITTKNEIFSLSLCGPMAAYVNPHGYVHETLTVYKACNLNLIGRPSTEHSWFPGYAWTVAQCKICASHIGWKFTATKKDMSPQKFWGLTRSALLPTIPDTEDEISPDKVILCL
T2 sequence (Q16531 whole entry partner): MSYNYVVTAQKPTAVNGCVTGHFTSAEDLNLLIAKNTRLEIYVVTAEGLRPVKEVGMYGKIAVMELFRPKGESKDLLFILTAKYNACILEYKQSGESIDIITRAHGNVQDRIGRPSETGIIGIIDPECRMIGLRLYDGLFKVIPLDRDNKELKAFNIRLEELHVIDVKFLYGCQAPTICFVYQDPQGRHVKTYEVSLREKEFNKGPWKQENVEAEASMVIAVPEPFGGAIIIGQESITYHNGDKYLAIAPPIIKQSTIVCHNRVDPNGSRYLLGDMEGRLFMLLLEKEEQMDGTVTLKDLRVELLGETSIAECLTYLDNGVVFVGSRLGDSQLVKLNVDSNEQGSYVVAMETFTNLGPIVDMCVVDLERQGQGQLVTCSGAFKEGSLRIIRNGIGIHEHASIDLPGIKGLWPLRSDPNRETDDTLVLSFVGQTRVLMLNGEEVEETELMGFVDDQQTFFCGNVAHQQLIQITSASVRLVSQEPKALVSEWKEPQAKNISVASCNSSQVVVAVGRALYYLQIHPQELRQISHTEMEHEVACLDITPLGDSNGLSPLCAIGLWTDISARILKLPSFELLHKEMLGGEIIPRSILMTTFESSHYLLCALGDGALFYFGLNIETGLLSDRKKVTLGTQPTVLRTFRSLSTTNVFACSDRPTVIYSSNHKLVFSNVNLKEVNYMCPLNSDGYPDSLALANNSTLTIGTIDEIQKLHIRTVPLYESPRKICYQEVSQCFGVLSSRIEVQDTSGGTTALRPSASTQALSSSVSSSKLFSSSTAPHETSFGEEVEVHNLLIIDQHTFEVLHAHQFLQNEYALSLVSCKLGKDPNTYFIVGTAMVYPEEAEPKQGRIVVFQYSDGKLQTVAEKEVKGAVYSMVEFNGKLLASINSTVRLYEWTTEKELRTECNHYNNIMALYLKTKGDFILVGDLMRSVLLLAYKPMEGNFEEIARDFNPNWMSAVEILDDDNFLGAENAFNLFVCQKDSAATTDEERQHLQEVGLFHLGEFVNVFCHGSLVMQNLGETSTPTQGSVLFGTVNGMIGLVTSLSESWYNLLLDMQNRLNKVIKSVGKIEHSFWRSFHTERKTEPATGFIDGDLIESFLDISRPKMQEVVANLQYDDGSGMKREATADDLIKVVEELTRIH
T6 sequence (Q96SW2 whole entry): as the sequence (Q96SW2 whole entry) above
T1 sequence (P48729 whole entry): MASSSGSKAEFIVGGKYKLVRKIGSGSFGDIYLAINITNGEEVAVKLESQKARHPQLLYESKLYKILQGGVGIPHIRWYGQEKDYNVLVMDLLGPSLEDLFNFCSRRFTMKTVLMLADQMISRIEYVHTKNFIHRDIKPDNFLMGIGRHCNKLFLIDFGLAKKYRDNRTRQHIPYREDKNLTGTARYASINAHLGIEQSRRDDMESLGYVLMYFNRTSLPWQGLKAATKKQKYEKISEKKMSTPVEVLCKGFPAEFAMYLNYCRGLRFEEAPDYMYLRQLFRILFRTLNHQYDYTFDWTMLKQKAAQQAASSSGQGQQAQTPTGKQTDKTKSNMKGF
T1 sequence (Q96SW2 whole entry): as the sequence (Q96SW2 whole entry) above
T1 sequence (Q16531 whole entry partner): as the sequence (Q16531 whole entry partner) above
T3 sequence (Q13422 whole entry): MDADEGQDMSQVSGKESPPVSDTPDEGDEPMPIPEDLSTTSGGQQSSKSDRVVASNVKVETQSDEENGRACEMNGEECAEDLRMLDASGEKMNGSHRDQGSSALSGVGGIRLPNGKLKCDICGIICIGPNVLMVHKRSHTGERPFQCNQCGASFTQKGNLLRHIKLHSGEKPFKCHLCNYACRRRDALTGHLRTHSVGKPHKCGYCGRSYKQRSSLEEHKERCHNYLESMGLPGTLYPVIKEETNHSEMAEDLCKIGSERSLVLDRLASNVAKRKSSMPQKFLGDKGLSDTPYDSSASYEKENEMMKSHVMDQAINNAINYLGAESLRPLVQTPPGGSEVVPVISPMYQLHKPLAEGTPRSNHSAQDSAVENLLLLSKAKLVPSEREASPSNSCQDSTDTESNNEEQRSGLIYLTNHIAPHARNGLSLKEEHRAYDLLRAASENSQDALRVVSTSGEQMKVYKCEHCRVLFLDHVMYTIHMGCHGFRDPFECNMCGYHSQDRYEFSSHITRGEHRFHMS
T3 sequence (Q96SW2 whole entry): as the sequence (Q96SW2 whole entry) above
T3 sequence (Q16531 whole entry partner): as the sequence (Q16531 whole entry partner) above
T4 sequence (Q9UKT9 whole entry): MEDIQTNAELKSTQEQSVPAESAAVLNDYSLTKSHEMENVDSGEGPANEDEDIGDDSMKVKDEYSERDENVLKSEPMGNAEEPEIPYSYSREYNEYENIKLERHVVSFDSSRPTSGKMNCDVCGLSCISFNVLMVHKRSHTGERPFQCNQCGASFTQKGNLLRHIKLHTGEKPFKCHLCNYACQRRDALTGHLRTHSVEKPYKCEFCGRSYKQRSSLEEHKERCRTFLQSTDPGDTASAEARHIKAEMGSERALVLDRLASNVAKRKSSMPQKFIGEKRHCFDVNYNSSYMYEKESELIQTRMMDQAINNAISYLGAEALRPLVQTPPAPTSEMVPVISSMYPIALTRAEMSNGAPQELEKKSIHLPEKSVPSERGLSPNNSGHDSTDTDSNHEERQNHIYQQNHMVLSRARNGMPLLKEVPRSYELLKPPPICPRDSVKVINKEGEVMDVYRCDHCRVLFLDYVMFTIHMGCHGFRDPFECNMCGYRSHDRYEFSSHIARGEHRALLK
T4 sequence (Q96SW2 whole entry): as the sequence (Q96SW2 whole entry) above
T4 sequence (Q16531 whole entry partner): as the sequence (Q16531 whole entry partner) above
T5 sequence (P30291 whole entry): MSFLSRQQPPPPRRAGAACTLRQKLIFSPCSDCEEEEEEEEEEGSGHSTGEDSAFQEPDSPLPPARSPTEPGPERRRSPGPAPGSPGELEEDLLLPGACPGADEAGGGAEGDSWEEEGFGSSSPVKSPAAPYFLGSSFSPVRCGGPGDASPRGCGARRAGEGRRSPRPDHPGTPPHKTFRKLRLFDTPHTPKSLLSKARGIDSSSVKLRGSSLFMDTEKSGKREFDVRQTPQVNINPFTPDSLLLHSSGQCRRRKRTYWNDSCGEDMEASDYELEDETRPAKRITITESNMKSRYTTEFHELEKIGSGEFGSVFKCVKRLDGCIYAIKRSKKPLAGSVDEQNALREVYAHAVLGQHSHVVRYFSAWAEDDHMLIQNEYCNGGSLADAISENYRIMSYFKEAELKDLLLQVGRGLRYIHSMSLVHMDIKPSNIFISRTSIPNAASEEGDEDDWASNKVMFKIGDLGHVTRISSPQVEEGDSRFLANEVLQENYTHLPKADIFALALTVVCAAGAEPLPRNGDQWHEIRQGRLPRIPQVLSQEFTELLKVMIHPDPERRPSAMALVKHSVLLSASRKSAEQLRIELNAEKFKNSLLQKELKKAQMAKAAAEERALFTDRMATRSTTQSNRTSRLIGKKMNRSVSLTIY
T5 sequence (Q96SW2 whole entry): as the sequence (Q96SW2 whole entry) above
T5 sequence (Q16531 whole entry partner): as the sequence (Q16531 whole entry partner) above

On to `O=C1CCC(N2Cc3cc(CN4CCC(Nc5ccccc5-c5ccc(Cl)cc5)CC4)ccc3C2=S)C(=O)N1` (stereo not drawn) [GT-05109, 3-(5-((4-((4'-chloro-[1,1'-biphenyl]-2-yl)amino)piperidin-1-yl)methyl)-1-thioxoisoindolin-2-yl)piperidine-2,6-dione], for which the “CK1α substrate protein remaining %” value on CK1α is “A (0% ≤ substrate protein remaining % ≤ 80%)”. Also, the “IKZF2 substrate protein remaining %” value at IKZF2 was “A (0% ≤ substrate protein remaining % ≤ 80%)”. Also, the “IKZF 1 substrate protein remaining %” value at IKZF1 was “A (0% ≤ substrate protein remaining % ≤ 80%)”. For the same compound, the “IKZF3 substrate protein remaining %” value at IKZF3 is reported as “A (0% ≤ substrate protein remaining % ≤ 80%)”. Further, the “Wee1 substrate protein remaining %” value on WEE1 is listed as “A (0% ≤ substrate protein remaining % ≤ 80%)”. The IC50 was 10 to 50 nM in test [1]; 5 to 10 nM in test [2]; 5 to 10 nM in [3]; below 5 nM in test [4]; below 5 nM in test [5]; 10 to 50 nM in test [6]. Moreover, the IC50 in test [7] lay in the range of 500 to 1000 nM. Also, the “GSPT1 substrate protein remaining %” value with GSPT1 is “A (0% ≤ substrate protein remaining % ≤ 80%)”.

As to `O=C1CCC(N2Cc3cc(CN4CCN(C(c5ccccc5)c5ccccc5)CC4)ccc3C2=S)C(=O)N1` (stereo not drawn) [GT-05104, 3-(5-((4-benzhydrylpiperazin-1-yl)methyl)-1-thioxoisoindolin-2-yl)piperidine-2,6-dione], on CK1α, the “CK1α substrate protein remaining %” value is reported as “B (80%< substrate protein remaining %≤ 100%)”. Further, the “IKZF2 substrate protein remaining %” value at IKZF2 is “B (80%< substrate protein remaining %≤ 100%)”. Moreover, the “IKZF 1 substrate protein remaining %” value on IKZF1 is on record as “B (80%< substrate protein remaining %≤ 100%)”. Moreover, at IKZF3, the “IKZF3 substrate protein remaining %” value is “B (80%< substrate protein remaining %≤ 100%)”. Also, the “Wee1 substrate protein remaining %” value on WEE1 is given as “A (0% ≤ substrate protein remaining % ≤ 80%)”. The “GSPT1 substrate protein remaining %” value in the test on GSPT1 is on record as “A (0% ≤ substrate protein remaining % ≤ 80%)”. The IC50 is 100 to 500 nM in test [2]; 100 to 500 nM in test [3]; below 5 nM in [4]; 100 to 500 nM in test [5]; 50 to 100 nM in test [6]; 500 to 1000 nM in test [7].

Regarding `O=C1CCC(N2Cc3cc(CN4CCC(c5cccc(Cl)c5Cl)CC4)ccc3C2=S)C(=O)N1` (stereo not drawn) [GT-05150, 3-(5-((4-(2,3-dichlorophenyl)piperidin-1-yl)methyl)-1-thioxoisoindolin-2-yl)piperidine-2,6-dione], the “CK1α substrate protein remaining %” value at CK1α was “B (80%< substrate protein remaining %≤ 100%)”. The “IKZF2 substrate protein remaining %” value on IKZF2 is reported as “A (0% ≤ substrate protein remaining % ≤ 80%)”. Also, the “IKZF 1 substrate protein remaining %” value at IKZF1 is reported as “A (0% ≤ substrate protein remaining % ≤ 80%)”. The “IKZF3 substrate protein remaining %” value at IKZF3 was “B (80%< substrate protein remaining %≤ 100%)”. Further, at WEE1, the “Wee1 substrate protein remaining %” value is “A (0% ≤ substrate protein remaining % ≤ 80%)”. Further, the IC50 in test [1] lay within 100 to 500 nM; in [2], 50 to 100 nM; in [3] it was 50 to 100 nM; in test [4], 5 to 10 nM; in test [5], 10 to 50 nM; in test [6], 100 to 500 nM. Besides, the IC50 in test [7] is 500 to 1000 nM. In the test with GSPT1, the “GSPT1 substrate protein remaining %” value is on record as “A (0% ≤ substrate protein remaining % ≤ 80%)”.

As to `Cc1ccc(Sc2ccccc2N2CCN(Cc3ccc4c(c3)C(=S)N(C3CCC(=O)NC3=O)C4)CC2)c(C)c1` (stereo not drawn) [GT-05038, 3-(6-((4-(2-((2,4-dimethylphenyl)thio)phenyl)piperazin-1-yl)methyl)-1-thioxoisoindolin-2-yl)piperidine-2,6-dione], at CK1α, the “CK1α substrate protein remaining %” value is “B (80%< substrate protein remaining %≤ 100%)”. In addition, the “IKZF2 substrate protein remaining %” value on IKZF2 is recorded as “A (0% ≤ substrate protein remaining % ≤ 80%)”. The “IKZF 1 substrate protein remaining %” value on IKZF1 is reported as “A (0% ≤ substrate protein remaining % ≤ 80%)”. Moreover, the “IKZF3 substrate protein remaining %” value at IKZF3 is “A (0% ≤ substrate protein remaining % ≤ 80%)”. The “Wee1 substrate protein remaining %” value at WEE1 is on record as “B (80%< substrate protein remaining %≤ 100%)”. Further, the “GSPT1 substrate protein remaining %” value with GSPT1 is on record as “A (0% ≤ substrate protein remaining % ≤ 80%)”. The IC50 in test [3] lay in the range of 500 to 1000 nM; in test [4] it was 100 to 500 nM; in test [5], 500 to 1000 nM; in [7] it was 500 to 1000 nM.

On to `O=C1CCC(N2Cc3cc(CN4CC=C(c5ccco5)CC4)ccc3C2=S)C(=O)N1` (stereo not drawn) [GT-05147, 3-(5-((4-(furan-2-yl)-3,6-dihydropyridin-1(2H)-yl)methyl)-1-thioxoisoindolin-2-yl)piperidine-2,6-dione], for which the “CK1α substrate protein remaining %” value on CK1α is “B (80%< substrate protein remaining %≤ 100%)”. On IKZF2, the “IKZF2 substrate protein remaining %” value was “A (0% ≤ substrate protein remaining % ≤ 80%)”. In addition, the “IKZF 1 substrate protein remaining %” value on IKZF1 is reported as “A (0% ≤ substrate protein remaining % ≤ 80%)”. Also, the “IKZF3 substrate protein remaining %” value at IKZF3 was “A (0% ≤ substrate protein remaining % ≤ 80%)”. Also, the “Wee1 substrate protein remaining %” value on WEE1 is recorded as “A (0% ≤ substrate protein remaining % ≤ 80%)”. Further, the “GSPT1 substrate protein remaining %” value in the test with GSPT1 is reported as “A (0% ≤ substrate protein remaining % ≤ 80%)”. The IC50 in [2] was 100 to 500 nM; in test [4] it was 10 to 50 nM; in [5], 100 to 500 nM; in test [7], below 100 nM.

The term inhibition denotes the share of the control response that was lost under treatment. Regarding `Nc1cccc2c1CN(C1CCC(=O)NC1=O)C2=O` (stereo not drawn) [lenalidomide, reference compound], the inhibition at 0.01 µM in [8] (setting [16]) was 10 to 20%; in [1] (setting [16]), 0 to 5%; in [9] (setting [16]) it was 5 to 10%; in test [4] (setting [16]) it was 10 to 20%; in test [10] (setting [16]) it was 0 to 5%; in [5] (setting [16]) it was 20 to 30%. The inhibition at 0.01 µM lay within 5 to 10% in test [12] (setting [16]), 0 to 5% in test [13] (setting [16]), 5 to 10% in test [14] (setting [16]) and 10 to 18% in [15] (setting [16]). Further, the inhibition at 0.5 µM fell in the range of 10 to 20% in [8] (setting [17]); 0 to 5% in test [9] (setting [17]); 30 to 40% in test [4] (setting [17]); 0 to 5% in test [10] (setting [17]); 10 to 20% in test [11]; 10 to 20% in test [5] (setting [17]). The inhibition at 0.5 µM in test [12] (setting [17]) is 5 to 10%; in [13] (setting [17]) it was 5 to 10%; in [14] (setting [17]) it was 5 to 10%; in [15] (setting [17]) it was 10 to 18%.

Source of the values: patent publication EP4745135A1 (Gluetacs Therapeutics (Shanghai) Co., Ltd., priority 2023, dated 2025).
